Read-outs that look alike come from different tables or passages of the source.
How the values were obtained:
HL-60 human leukaemia = assay: Inhibition of tumor cell proliferation at 10 μM, Model A: MTT method; format: cell-based; conditions: HL-60, MTT method, read-out: Model A Inhibitory rate (%)
Description: (§1) The evaluation of the compounds according to the present invention on the inhibition rate of the proliferation of four different tumor cells, using the routine method for anti-tumor activity tests in the pharmaceutical filed, for example the method described in the following literature: (J. Immuno/Method, 1983, 65, 55).

[1] = system: BGC-823 human gastric cancer; assay: Inhibition of tumor cell proliferation at 10 μM, Model B: SRB method; format: cell-based; conditions: BGC-823, SRB method, read-out: Model B Inhibitory rate (%)
Description: as §1

[2] = system: Bel-7402 human liver cancer; assay: Inhibition of tumor cell proliferation at 10 μM, Model C: SRB method; format: cell-based; conditions: Bel-7402, SRB method, read-out: Model C Inhibitory rate (%)
Description: as §1

[3] = system: KB human nasopharyngeal cancer; assay: Inhibition of tumor cell proliferation at 10 μM, Model D: SRB method; format: cell-based; conditions: read-out: Model D Inhibitory rate (%)
Description: as §1

[4] = system: human leukaemia HL-60 cells; assay: EC50 on proliferation of HL-60 cells (MTT, 48 h); format: cell-based; conditions: read-out: HL-60 EC50 (nmol)
Description: (§2) EC50 values of the compounds according to the present invention on the proliferation of human leukaemia HL-60 cells and Bel-7402 cells were determined by using the following method, and the results are shown in Table 2.
Testing method for EC50 values on the human leukaemia HL-60 cells: The human leukaemia HL-60 cells were cultured in vitro. The cells were collected after growth to logarithmic phase, and centrifugated at 1000 rpm for 5 min. The supernatant was discarded and the cells were suspended in an appropriate amount of medium. The cell concentration was adjusted to 1.2×10^4/mL. The cells were seeded into 96-well culture plates in 90 μL per well. For each well of the drug treatment groups, 10 μL of medium-diluted drug was added, whereas for the blank control groups, the same amount of medium was added. Every testing drug was set up for three parallel wells, and also three control wells with only testing drugs (without cell) were set up. Negative control groups were medium containing 0.5% DMSO. After the plate was incubated in an incubator for 48 h, 10 μL of 5 mg/mL MTT was added into each well, and then the plate was placed for 3 h at 37° C. 100 μL of ternary solution (5% SDS, 10 mM HCl, 5% isopropanol) was added into each well, and the plate was kept at 37° C. overnight. The absorbance (OD) was measured at 595 nm/620 nm. The EC50 values were calculated by using Prism Graphpad statistical software.

Bel-7402 cells = assay: EC50 on proliferation of Bel7402 cells (SRB, 48 h); format: cell-based; conditions: Homo sapiens, read-out: Bel7402 EC50 (nmol)
Description: as §2
Testing method for ED50 values on the human Be17402ce11: After the cells were incubated with the addition of the drugs for 48 h, the plates were taken out. 50 μL of pre-cooled 500 g/L trichloroacetic acid was added into each well. The plates were kept in 4° C. refrigerator for 1 h after standing for 5 min, taken out, washed with deionized water for 5 times, and dried in the air. After the plates were completely dried, 100 μL of 0.4% SRB (formulated in 1% acetic acid) was added into each well. Following staining for 20 min, the staining solution was discarded, and the residue was washed with 1% acetic acid for 5 times to remove the uncombined dye. After being dried in the air, the residue was dissolved in 150 μL of 10 mmol/L unbuffered
Tris basic solution (pH=10.5), and oscillated in an oscillator for 5 min. The absorbance of each well at 490 nm was measured with TECAN enzyme mark instrument. The cells in background control plates were treated in the same way for measuring OD490. The EC50 values were calculated by using Prism Graphpad statistical software.

[5] = system: SK-BR-3 (cell line of erbB2 over-expression); assay: MTT assay on erbB2 over-expressing cell line (72 h); format: cell-based; conditions: Homo sapiens, read-out: SK-BR-3 (μM), EC50
Description: (§3) Experimental operations: Human breast cancer SK-BR-3, MDA-MB-468 cells and human colon cancer HCT 116 cells were cultured in vitro. The cells were collected after growth to logarithmic phase, and centrifugated at 1000 rpm for 5 min. The supernatant was discarded, and the cells were suspended with an appropriate amount of medium. The cell concentration was adjusted to 3.5×10^3/mL. Then the cells were seeded into 96-well culture plates in 100 μL per well, and placed in an incubator (37° C., 5% CO2) to be incubated for 24 h. The testing drugs were added, and the negative control group was added DMSO with the final concentration of 5%. Each group has three parallel wells. After being incubated in the incubator for 72 h, 20 μL of 5 mg/mL MTT was added into each well, and the plate was placed at 37° C. for 4 h. 200 μL of DMSO was added into each well, and then the plate was oscillated in an oscillator for 30 min. […] The EC50 values were calculated by using Prism Graphpad statistical software.

[6] = system: MDA-MB-468 (cell line of EGFR over-expression); assay: MTT assay on EGFR over-expressing cell line (72 h); format: cell-based; conditions: Homo sapiens, read-out: MDA-MB-468 (μM), EC50
Description: as §3

[7] = system: HCT 116 (cell line of low-expression of both EGFR and erbB2); assay: MTT assay on control cell line with low EGFR and erbB2 expression (72 h); format: cell-based; conditions: Homo sapiens, read-out: HCT 116 (μM), EC50
Description: as §3

SMILES	melting point [°C]	EC50 ([5]; SK-BR-3 cells, MTT, 72 h) [µM]	EC50 ([6]; MDA-MB-468 cells, MTT, 72 h) [µM]	EC50 ([7]; HCT 116 cells, MTT, 72 h) [µM]	EC50 ([5]; SK-BR-3, 72 h) [µM]	EC50 ([6]; MDA-MB-468, 72 h) [µM]	EC50 ([7]; HCT-116, 72 h) [µM]	inhibition at 10 µM (HL-60 human leukaemia) [%]	inhibition at 10 µM [1] [%]	inhibition at 10 µM [2] [%]	inhibition at 10 µM [3] [%]	EC50 [4] [µM]	EC50 (Bel-7402 cells) [µM]
OB(O)CCSC(=S)NCc1cccnc1 [Compound 14, 2-boronoethyl(pyridin-3-ylmethyl)dithiocarbamate]	49 to 50							41.4	68.6	91	94.5		
COC(=O)CCSC(=S)NCc1ccco1 [Compound 2, 2-(methoxycarbonyl)ethyl(furan-2-ylmethyl)dithiocarbamate]	50 to 52							19.3	16.4	-1.69	3.8		
OC1CCSC(=S)N1Cc1cccnc1 (centres unmarked) [Compound 9, 4-hydroxy-3-(pyridin-3-ylmethyl)-1,3-thiazinane-2-thione]	56 to 57							38.9	20.3	79.5	61.3		
OC1CCSC(=S)N1Cc1ccco1 (centres unmarked) [Compound 1, 3-(furan-2-ylmethyl)-4-hydroxy-1,3-thiazinane-2-thione]	42 to 43							28.4	20	43.1	20.1		
CCCCOC(=O)CCSC(=S)NCc1cccnc1 [Compound 47, 2-(butoxycarbonyl)ethyl (pyridin-3-ylmethyl)dithiocarbamate]		4.46	12.8	7.83								0.0254	0.00636
[O-][S+](CCSC(=S)NCc1ccco1)Cc1ccccc1 (centres unmarked) [Compound 8, 2-(benzylsulfinyl)ethyl(furan-2-ylmethyl)dithiocarbamate]	51 to 52							20.9	12.3	56.9	10.5		

Continued, in another order:

melting point [°C]	EC50 ([5]; SK-BR-3 cells, MTT, 72 h) [µM]	EC50 ([6]; MDA-MB-468 cells, MTT, 72 h) [µM]	EC50 ([7]; HCT 116 cells, MTT, 72 h) [µM]	EC50 ([5]; SK-BR-3, 72 h) [µM]	EC50 ([6]; MDA-MB-468, 72 h) [µM]	EC50 ([7]; HCT-116, 72 h) [µM]	SMILES	inhibition at 10 µM (HL-60 human leukaemia) [%]	inhibition at 10 µM [1] [%]	inhibition at 10 µM [2] [%]	inhibition at 10 µM [3] [%]	EC50 [4] [µM]	EC50 (Bel-7402 cells) [µM]
88 to 89							CC1=CSC(=S)N(Cc2ccco2)C1(C)O (centres unmarked) [Compound 4, 3-(furan-2-ylmethyl)-4-hydroxy-4,5-dimethyl-3,4-dihydro-2H-1,3-thiazine-2-thione]	23.7	15.2	2.91	5.76		
58 to 60	2.84	9.54	10.4				N#CCCSC(=S)NCc1cccnc1 [Compound 11, 2-cyanoethyl(pyridin-3-ylmethyl)dithiocarbamate]	72.3	60.4	86.1	93.7	0.00146	0.0272
				4.35	19.6	42.4	CS(=O)(=O)CCNCc1ccc(-c2ccc3ncnc(Nc4ccc(OCc5cccc(F)c5)c(Cl)c4)c3c2)o1 [Lapatinib, reference compound]						
71 to 72							CC1=CSC(=S)N(Cc2cccnc2)C1(C)O (centres unmarked) [Compound 12, 4-hydroxy-4,5-dimethyl-3-(pyridin-3-ylmethyl)-3,4-dihydro-2H-1,3-thiazine-2-thione]	79.9	43.9	8.66	15.2		
	0.655	0.953	16.2				[O-][S+](CCSC(=S)NCc1cccnc1)Cc1ccccc1 (centres unmarked) [Compound 16, 2-(benzylsulfinyl)ethyl(pyridin-3-ylmethyl)dithiocarbamate]	26.1	72.3	96.1	93.1		
43 to 45							C[S+]([O-])CCSC(=S)NCc1ccco1 (centres unmarked) [Compound 7, 2-(methylsulfinyl)ethyl(furan-2-ylmethyl)dithiocarbamate]	11.2	16	-8.68	4.07		
